The values below come from patent US20080207673A1, “Method for Treating Cancer, Coronary, Inflammatory and Macular Disease, Combining the Modulation of Zinc-and/or Copper Dependent Proteins” (priority 2005, published 2008).

Some results are limits rather than exact numbers.

One data set has as its system HCV RNA Replicons. Briefly: HCV RNA replicon antiviral activity testing (luciferase). It counts as cell-based, Hepatitis C virus. The conditions noted are these: for inhibition at 20 µM: Hepatitis C virus, 20 micromolar, read-out: Antiviral Activity (luciferase, percent inhibition of virus control).
The next data set has as its system Huh7 ET. In words: Cytotoxicity in the HCV replicon cell line (actively dividing cells). The conditions noted are these: single high test concentration, 20 micromolar. It counts as cell-based. From the text: The cell line used was Huh7 ET.
On the technique in general: Replicon systems follow genome replication, usually without infectious particles.

The target of the next data set is T1, Aβ (1-40) (Homo sapiens, UniProt P05067).
T1 construct: A 5 mg/ml stock solution of Aβ (1-40) (delivered from Bachem (CH)); purchased Bachem (CH)
T1 sequence (P05067 672-711 limits assumed): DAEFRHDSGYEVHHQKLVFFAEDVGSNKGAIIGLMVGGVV
Briefly: Thioflavin T fluorometric assay of metal-ion induced Aβ aggregation. The format is biochemical. The conditions noted are these: test compound 10 μg/ml, 24 hours. The method, then: A 5 mg/ml stock solution of Aβ (1-40) (delivered from Bachem (CH)) was freshly prepared before each experiment by dissolving the lyophilized peptide in 0.01 M HCl, followed by subsequent dilution 1.1 with 0.01 M NaOH to yield a neutral pH. Aliquot of Aβ (1-40) were diluted in PBS (pH 7.4) to 100 [mu]M and incubated at a total volume of 30 μ/l for 24 hours at room temperature. For co-incubation experiments, the indicated concentrations of metal ions and/or aliquot of test compounds were added. The test compounds were added to a final molar concentration of 10 μg/ml.
The amyloid formation was quantified by a thioflavin T fluorometric assay. Thioflavin binds specifically to amyloid and this introduces a shift in its emission spectrum and a fluorescent signal proportional to the amount of amyloid is formed. After incubation, Aβ (1-40) peptides were added to PBS (pH 6.0) and 3 μM thioflavin T in a final volume of 1 ml. Fluorescence was monitored at excitation 454 nm and emission 482 nm using a Fluoroscan II fluorometer (Molecular devices, UK). A time scan of fluorescence was performed and three values after the decay reached a plateau (around 5 minutes) were averaged after subtracting the background fluorescence of 3 μM thioflavin T. For co-incubation experiments, fluorescence of test compound alone was determined. Samples were run in triplicate.
It was studied whether the two compounds had any effect on metal-ion catalysed Aβ aggregation, especially the aggregation caused by Zn and Cu.

The target in the next data set is T2, MMP-1 (Homo sapiens, UniProt P03956).
T2 sequence (P03956 100-469): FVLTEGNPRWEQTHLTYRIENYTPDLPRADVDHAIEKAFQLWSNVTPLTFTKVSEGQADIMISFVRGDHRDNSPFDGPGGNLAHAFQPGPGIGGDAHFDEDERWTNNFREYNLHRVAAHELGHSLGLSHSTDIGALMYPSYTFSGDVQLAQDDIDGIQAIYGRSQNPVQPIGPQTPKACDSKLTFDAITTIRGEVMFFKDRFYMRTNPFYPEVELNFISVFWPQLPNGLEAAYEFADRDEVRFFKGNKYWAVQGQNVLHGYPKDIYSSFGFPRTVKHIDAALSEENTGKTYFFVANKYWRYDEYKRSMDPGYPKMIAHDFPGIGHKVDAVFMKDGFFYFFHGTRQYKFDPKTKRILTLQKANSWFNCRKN
In words: MMP enzyme assay, fluorometric. It counts as biochemical. The method, then: (§1) An enzyme assay was conducted with five of the enzymes belonging to the MMP group. Specifically, the assay was conducted for MMP-1, MMP-2, MMP-3, MMP-7, and MMP-9 at various concentrations.
(§2) A test substrate of Mca-Pro-Leu-Gly-Leu-Dpa-Ala-Arg-NH2 was subsequently added to obtain a concentration of 25 μM. MMP-1 was incubated for 2 hours at 37EC, MMP-2 was incubated for 3 hours at 25EC, MMP-3 was incubated for 90 min at 37EC. MMP-7 was incubated for 90 min at 37EC, and MMP-9 was incubated for 2 hours at 25 degrees Celsius. The activity of the enzymes was measured by fluorometric quantisation of Mca-Pro-Leu-Gly-OH.

Another data set has as its target T3, MMP-2 (Homo sapiens, UniProt P08253).
T3 sequence (P08253 110-660): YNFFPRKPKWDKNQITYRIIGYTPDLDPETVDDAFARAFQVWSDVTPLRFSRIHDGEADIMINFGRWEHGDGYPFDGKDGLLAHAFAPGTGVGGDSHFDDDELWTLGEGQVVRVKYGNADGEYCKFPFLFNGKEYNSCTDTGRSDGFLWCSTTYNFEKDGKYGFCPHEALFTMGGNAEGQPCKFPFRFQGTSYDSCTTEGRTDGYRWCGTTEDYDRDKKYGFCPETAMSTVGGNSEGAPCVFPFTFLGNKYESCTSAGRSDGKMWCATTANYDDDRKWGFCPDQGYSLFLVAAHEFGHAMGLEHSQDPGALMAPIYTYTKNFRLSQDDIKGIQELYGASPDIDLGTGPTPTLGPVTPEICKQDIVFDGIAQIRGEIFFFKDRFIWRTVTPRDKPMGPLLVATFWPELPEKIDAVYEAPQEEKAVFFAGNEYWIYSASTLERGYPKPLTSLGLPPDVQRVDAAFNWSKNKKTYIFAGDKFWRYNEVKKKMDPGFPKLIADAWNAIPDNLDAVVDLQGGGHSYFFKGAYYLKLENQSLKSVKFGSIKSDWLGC
In words: MMP enzyme assay, fluorometric. It counts as biochemical. The method, then:
as §1, §2

The target in another data set is MMP-3 (Homo sapiens, UniProt P08254). In words: MMP enzyme assay, fluorometric. The format is biochemical. As to the method:
as §1, §2

The target in a further data set is T4, MMP-7 (Homo sapiens, UniProt P09237).
T4 sequence (P09237 95-267): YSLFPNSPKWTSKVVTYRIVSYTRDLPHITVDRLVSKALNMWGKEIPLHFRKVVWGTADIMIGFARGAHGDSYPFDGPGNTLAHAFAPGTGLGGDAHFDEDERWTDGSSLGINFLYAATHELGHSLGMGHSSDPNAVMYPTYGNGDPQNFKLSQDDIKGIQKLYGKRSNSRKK
Briefly: MMP enzyme assay, fluorometric. The format is biochemical. The method, then:
as §1, §2

A further data set addresses MMP-9 (Homo sapiens, UniProt P14780). In words: MMP enzyme assay, fluorometric. The format is biochemical. As to the method: as §1, §2
The next data set has as its system hepatitis B (HBV). Briefly: NIH hepatitis B screening. The format is cell-based, hepatitis B virus. The conditions noted are these: negative because of cytotoxicity of the cell line used. From the text:
The HBV research is run by the University of Georgetown (Dr. Brent Korba). The results with HBV were negative at this point because of cytotoxicity of the cell line used.

The conditions of data set [1]: cited from earlier work.
For a further data set, the system named is PC12 cells. In words: MTT reduction, Aβ (25-35) induced toxicity in PC12 cells. To be noted: 10 μg phanquinone per ml. The format is cell-based, Rat. As to the method: Aβ (25-35) was delivered by Bachem (CH) or Sigma (USA) and dissolved in phosphate buffered saline (PBS) at pH 7, 4, 2 hours prior to application.
Rat PC12 pheochromocytoma cells were grown in Dulbecco's modified Eagle's medium (DMEM) containing 1% penicillin-streptomycin, 5% fetal calf serum and 10% horse serum in humidified incubator with 5% CO2.
PC12 cells were plated on 96-wells microtiter plates in 100 μl of the appropriate medium. After 24 hours the indicated concentrations of Aβ (25-35) peptide was added alone or together with phanquinone in the designated concentrations. Incubation continued for 24 hours. Following incubation, MTT reduction was measured using a commercially available assay according to the manufacturer's (Boehringer Mannheim) instructions. Assay values obtained by vehicle alone were defined as 100%.
MTT is a substrate for intracellular and plasma membrane oxidoreductases and has been widely used to measure reductions of cell redox activity.
To test the effect of phanquinone on Aβ (25-35) induced toxicity in PC12 cells, PC12 cells were exposed to Aβ (25-35) peptide concentrations ranging from 0 to 10 μM. In the absence of phanquinone (i.e. only vehicle added) Aβ (25-35) produced a dose-dependent inhibition of MTT reduction. […]
In general terms: Tetrazolium assays rely on reduction of a dye to a coloured formazan, in cell work by metabolically active cells.

The conditions of data set [2]: brain; cited from earlier work.
For data set [3] the following is noted: cited from earlier work. This is another data set of the same source.
[4] abbreviates: single high test concentration, Huh7 ET.

Sequence of MMP-9 (P14780 94-707, species assumed): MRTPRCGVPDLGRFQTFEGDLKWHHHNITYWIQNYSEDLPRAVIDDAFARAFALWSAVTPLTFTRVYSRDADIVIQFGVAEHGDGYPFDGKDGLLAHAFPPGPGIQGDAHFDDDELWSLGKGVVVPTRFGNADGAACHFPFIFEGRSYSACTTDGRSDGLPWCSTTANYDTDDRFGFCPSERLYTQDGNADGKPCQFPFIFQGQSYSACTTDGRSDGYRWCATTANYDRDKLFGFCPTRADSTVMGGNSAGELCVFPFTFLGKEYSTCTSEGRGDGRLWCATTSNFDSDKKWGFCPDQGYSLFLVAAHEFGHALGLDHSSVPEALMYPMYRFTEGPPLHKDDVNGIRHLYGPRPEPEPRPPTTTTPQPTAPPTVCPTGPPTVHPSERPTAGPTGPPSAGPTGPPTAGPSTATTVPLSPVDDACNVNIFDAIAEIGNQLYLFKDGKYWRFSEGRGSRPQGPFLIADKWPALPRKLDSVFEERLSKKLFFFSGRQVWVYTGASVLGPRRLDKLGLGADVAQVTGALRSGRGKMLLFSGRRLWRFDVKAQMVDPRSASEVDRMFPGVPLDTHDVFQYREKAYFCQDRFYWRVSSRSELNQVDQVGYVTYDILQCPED
Sequence of MMP-3 (P08254 100-477, species assumed): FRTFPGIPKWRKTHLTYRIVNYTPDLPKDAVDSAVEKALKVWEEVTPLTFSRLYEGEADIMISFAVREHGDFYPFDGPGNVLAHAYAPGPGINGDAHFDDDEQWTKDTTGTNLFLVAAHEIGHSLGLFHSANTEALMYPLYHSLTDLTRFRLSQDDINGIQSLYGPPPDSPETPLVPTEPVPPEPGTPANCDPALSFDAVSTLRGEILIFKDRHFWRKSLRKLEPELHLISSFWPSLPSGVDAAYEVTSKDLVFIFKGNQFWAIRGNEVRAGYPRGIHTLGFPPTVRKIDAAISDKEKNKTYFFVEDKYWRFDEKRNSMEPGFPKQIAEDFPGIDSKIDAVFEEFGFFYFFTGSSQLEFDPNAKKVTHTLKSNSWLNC

The inhibition is the drop in the measured response relative to a control, in per cent. For the compound `Oc1c(I)cc(Cl)c2cccnc12` [Clioquinol, 5-chloro-7-iodo-8-hydroxyquinoline], in the data set on HCV RNA Replicons (setting [4]), the inhibition at 20 µM stood at 82.3% and the “Comments (screening verdict)” value is recorded as “Potentially active”. For the same compound, in the data set with HCV RNA Replicons (retesting dose response), the “selectivity index S150” value is on record as “over 4.8” and the “selectivity index S190” value is 14. Besides, the “Cytotoxicity (actively dividing cells, percent cell control)” value in the data set with Huh7 ET is reported as 73.3%. For the same compound, at Aβ (1-40), the “reduction of Cu-induced aggregation of Aβ (1-40)” value is on record as “approximately 30%” and the “reduction of Zn-induced aggregation of Aβ (1-40)” value was “more than 60%”. Moreover, at MMP-1, the inhibition at 100 µM stood at 12%. For the same compound, on MMP-2, the inhibition at 100 µM turned out to be 28%, the inhibition at 1000 µM was 26% and the inhibition at 10000 µM was 101%. Also, the inhibition at 100 µM on MMP-3 stood at 7%. Moreover, at MMP-7, the inhibition at 100 µM was determined as 20%. Further, the inhibition at 100 µM at MMP-9 turned out to be 19%. Further, the “results with HBV” value in the data set with hepatitis B (HBV) is “negative”. Moreover, the solubility in water entry in data set [1] was “Practically insoluble in water”.

Consider `O=C1C(=O)c2ncccc2-c2cccnc21` [Phanquinone, 4,7-phenanthroline-5,6-dione], for which, in the data set on HCV RNA Replicons (setting [4]), the inhibition at 20 µM was determined as 83.2%, the “Comments (screening verdict)” value is “Toxic” and the “Selectivity Index” value is given as less than 1. Besides, the “activity against HCV RNA replicons” value in the data set on HCV RNA Replicons (retest with dose response curve, Huh7 ET) is recorded as “no activity”. For the same compound, the “Cytotoxicity (actively dividing cells, percent cell control)” value in the data set on Huh7 ET worked out at 10.5%. Also, at Aβ (1-40), the “reduction of Cu-induced aggregation of Aβ (1-40)” value is 50-60% and the “reduction of Zn-induced aggregation of Aβ (1-40)” value is on record as “approximately 10%”. The “inhibition of MTT reduction by Aβ (25-35)” value in the data set with PC12 cells (Aβ 10 μM, 24 hours) is listed as “around 10%”. For the same compound, the “effect on the toxic effect of Aβ (25-35)” value with PC12 cells (Aβ as high as 1 μM) is listed as “completely counteracted”. For the same compound, the “results with HBV” value in the data set with hepatitis B (HBV) is “negative”. For the same compound, the “ability of copper chelation compared to clioquinol” value in data set [2] is “three times more pronounced”. Also, in data set [3] (in vivo), the “adverse effect on the nervous system” value is given as “no evidence” and the “deaths, fetal malformations, drug interactions or carcinogenicity related to treatment” value is given as “no reports”. Also, the tolerability result in [3] (most often 200-400 mg/day for 7 to 10 days) is “well tolerated”.
